Test results from patent publication US10287255B2, “Compounds as histone deacetylase 6 inhibitors and pharmaceutical compositions comprising the same” (CHONG KUN DANG PHARMACEUTICAL CORP., priority 2014, dated 2019).

What was measured:
human recombinant HDAC1 = target: T1, human recombinant HDAC1 (Homo sapiens, UniProt Q13547); experiment: HDAC1 enzyme activity inhibition assay (in vitro, fluorimetric); assay type: biochemical; details: human recombinant HDAC1, fluorimetric kit, 30° C. 60 minutes
T1 construct: purchased Enzo Life Science BML-SE456
Method: (§1) In order to examine the HDAC6 selectivity of the compounds of formula 1 of the present invention by HDAC1 and HDAC6 enzymatic activity inhibition assays, an experiment was performed using a conventional substance as a control.
(§2) HDAC enzyme activity was measured using a HDAC Fluorimetric Drug Discovery Kit (BML-AK511, 516, Enzo Life Science). For the HDAC1 enzyme activity test, human recombinant HDAC1 (BML-SE456) was used as an enzyme source, and Fluor de Lys®-“SIRT1 (BNL-KI177) was used as a substrate. A 5-fold dilution of the compound was seeded into a 96-well plate, and then 0.3 μg of the enzyme and 10 μM of the substrate were added to each well of the plate and allowed to react at 30° C. for 60 minutes. Then, Fluor de Lys® Developer II (BML-KI176) was added thereto and allowed to react for 30 minutes, after which the fluorescence value (Ex 360, Em 460) was measured using a multi-plate reader (Flexstation 3, Molecular Device). The HDAC6 enzyme was tested using human recombinant HDAC6 (382180) (Calbiochem) according to the same protocol as the HDAC1 enzyme activity test method. Based on the resulting values, each IC50 value was calculated using GraphPad Prism4.0 program.

human recombinant HDAC6 = target: T2, human recombinant HDAC6 (Homo sapiens, UniProt Q9UBN7); experiment: HDAC6 enzyme activity inhibition assay (in vitro, fluorimetric); assay type: biochemical; details: for HDAC6 selectivity (fold): HDAC6 selectivity over HDAC1; for IC50: human recombinant HDAC6, fluorimetric kit, same protocol as HDAC1
T2 construct: purchased Calbiochem 382180
T2 sequence (Q9UBN7 1-1215): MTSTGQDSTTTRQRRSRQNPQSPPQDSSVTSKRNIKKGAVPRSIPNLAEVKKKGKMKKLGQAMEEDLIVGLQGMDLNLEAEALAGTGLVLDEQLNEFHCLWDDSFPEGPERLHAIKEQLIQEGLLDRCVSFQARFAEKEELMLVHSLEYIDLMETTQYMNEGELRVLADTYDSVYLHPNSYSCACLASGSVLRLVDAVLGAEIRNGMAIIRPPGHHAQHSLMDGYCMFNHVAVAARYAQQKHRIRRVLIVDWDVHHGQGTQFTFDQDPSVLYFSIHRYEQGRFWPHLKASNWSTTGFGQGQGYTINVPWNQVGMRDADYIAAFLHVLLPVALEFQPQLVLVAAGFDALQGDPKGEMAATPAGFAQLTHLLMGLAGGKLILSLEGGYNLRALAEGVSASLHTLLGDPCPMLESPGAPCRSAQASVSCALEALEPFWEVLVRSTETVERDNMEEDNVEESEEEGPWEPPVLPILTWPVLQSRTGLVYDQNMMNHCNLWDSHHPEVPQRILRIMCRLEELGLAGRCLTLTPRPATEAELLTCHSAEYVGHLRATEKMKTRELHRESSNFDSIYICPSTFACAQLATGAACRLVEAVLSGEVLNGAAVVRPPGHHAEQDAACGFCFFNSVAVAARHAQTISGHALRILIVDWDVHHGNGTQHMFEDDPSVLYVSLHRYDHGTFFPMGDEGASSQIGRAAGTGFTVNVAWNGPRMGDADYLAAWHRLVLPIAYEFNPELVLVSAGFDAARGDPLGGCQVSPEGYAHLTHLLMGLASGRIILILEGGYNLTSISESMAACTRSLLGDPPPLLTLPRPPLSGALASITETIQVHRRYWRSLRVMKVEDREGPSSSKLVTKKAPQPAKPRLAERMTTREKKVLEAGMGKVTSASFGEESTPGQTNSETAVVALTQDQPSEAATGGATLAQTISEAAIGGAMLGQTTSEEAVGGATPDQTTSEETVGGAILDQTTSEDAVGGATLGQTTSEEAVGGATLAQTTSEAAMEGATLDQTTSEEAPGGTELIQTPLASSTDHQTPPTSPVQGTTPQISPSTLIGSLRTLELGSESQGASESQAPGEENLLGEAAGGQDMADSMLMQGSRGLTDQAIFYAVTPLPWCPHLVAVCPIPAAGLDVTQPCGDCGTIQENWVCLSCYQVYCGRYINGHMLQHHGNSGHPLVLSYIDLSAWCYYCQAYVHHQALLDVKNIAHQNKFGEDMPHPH
Method: as §1, §2

T1 sequence (Q13547 whole entry): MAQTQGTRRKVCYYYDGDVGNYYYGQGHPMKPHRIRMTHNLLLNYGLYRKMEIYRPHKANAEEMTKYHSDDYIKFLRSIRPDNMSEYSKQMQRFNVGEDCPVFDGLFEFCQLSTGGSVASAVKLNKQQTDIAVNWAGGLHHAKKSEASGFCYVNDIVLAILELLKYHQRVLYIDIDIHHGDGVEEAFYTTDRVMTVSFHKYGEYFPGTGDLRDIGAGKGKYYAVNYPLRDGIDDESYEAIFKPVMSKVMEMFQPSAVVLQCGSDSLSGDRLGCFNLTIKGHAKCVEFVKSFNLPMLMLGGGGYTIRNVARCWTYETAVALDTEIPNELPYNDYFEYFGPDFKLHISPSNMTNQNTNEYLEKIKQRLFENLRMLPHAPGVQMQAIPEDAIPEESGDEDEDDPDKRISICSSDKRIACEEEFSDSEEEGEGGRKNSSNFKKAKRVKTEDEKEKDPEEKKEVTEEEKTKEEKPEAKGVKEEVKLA

IC50 (human recombinant HDAC1) [nM] | HDAC6 selectivity (fold) (human recombinant HDAC6) | IC50 (human recombinant HDAC6) [nM] | SMILES
6200 | 84 | 74 | C[C@@H]1CN(Cc2ccc(C(=O)NO)cc2)C[C@H](C)N1Cc1ccc2ccccc2c1 [Compound 265, 4-(((3R,5S)-3,5-dimethyl-4-(naphthalen-2-ylmethyl)piperazin-1-yl)methyl)-N-hydroxybenzamide]
1900 | 36 | 52 | C[C@@H]1CN(Cc2ccc(C(=O)NO)cc2)C[C@H](C)N1Cc1cccc(F)c1 [Compound 225, 4-(((3R,5S)-4-(3-fluorobenzyl)-3,5-dimethylpiperazin-1-yl)methyl)-N-hydroxybenzamide]
8300 | 81 | 103 | C[C@@H]1CN(C(=O)c2cccc(Cl)c2)C[C@H](C)N1Cc1ccc(C(=O)NO)cc1 [Compound 107, 4-(((2S,6R)-4-(3-chlorobenzoyl)-2,6-dimethylpiperazin-1-yl)methyl)-N-hydroxybenzamide]
7800 | 65 | 120 | CC(C)CCN1CCN(Cc2cccc(C(=O)N3[C@H](C)CN(Cc4ccc(C(=O)NO)cc4)C[C@@H]3C)c2)CC1 [Compound 442, N-hydroxy-4-(((3R,5S)-4-(3-((4-isopentylpiperazin-1-yl)methyl)benzoyl)-3,5-dimethylpiperazin-1-yl)methyl)benzamide]
2000 | 7 | 301 | C[C@@H]1CN(Cc2ccc(C3=CCOCC3)cc2)C[C@H](C)N1Cc1ccc(C(=O)NO)cc1 [Compound 401, 4-(((2S,6R)-4-(4-(3,6-dihydro-2H-pyran-4-yl)benzyl)-2,6-dimethylpiperazin-1-yl)methyl)-N-hydroxybenzamide]
21000 | 20 | 1060 | C[C@@H]1CN(Cc2ccc(C(=O)NO)cc2)C[C@H](C)N1Cc1cncnc1 [Compound 355, 4-(((3R,5S)-3,5-dimethyl-4-(pyrimidin-5-ylmethyl)piperazin-1-yl)methyl)-N-hydroxybenzamide]
4700 | 41 | 117 | C[C@@H]1CN(Cc2ccc(C(=O)NO)cc2)C[C@H](C)N1Cc1cccc(CN2CCN(C)CC2)c1 [Compound 428, 4-(((3R,5S)-3,5-dimethyl-4-(3-((4-methylpiperazin-1-yl)methyl)benzyl)piperazin-1-yl)methyl)-N-hydroxybenzamide]
> 10000 | >65 | 154 | C[C@@H]1CN(C(=O)c2cccnc2)C[C@H](C)N1Cc1ccc(C(=O)NO)cc1 [Compound 112, 4-(((2S,6R)-2,6-dimethyl-4-nicotinoylpiperazin-1-yl)methyl)-N-hydroxybenzamide]
18700 | 183 | 102 | C[C@@H]1CN(Cc2ccc(C(=O)NO)cc2)C[C@H](C)N1Cc1ccccc1-c1ccoc1 [Compound 328, 4-(((3R,5S)-4-(2-(furan-3-yl)benzyl)-3,5-dimethylpiperazin-1-yl)methyl)-N-hydroxybenzamide]
5000 | 35 | 142 | CCN(CC)Cc1cccc(CN2[C@H](C)CN(Cc3ccc(C(=O)NO)cc3)C[C@@H]2C)c1 [Compound 426, 4-(((3R,5S)-4-(3-((diethylamino)methyl)benzyl)-3,5-dimethylpiperazin-1-yl)methyl)-N-hydroxybenzamide]
4300 | 538 | 8 | C[C@@H]1CN(Cc2ccc(C(=O)NO)cc2)C[C@H](C)N1Cc1ccc(CN2CC[C@@H](F)C2)cc1 [Compound 411, 4-(((3R,5S)-4-(4-(((R)-3-fluoropyrrolidin-1-yl)methyl)benzyl)-3,5-dimethylpiperazin-1-yl)methyl)-N-hydroxybenzamide]
3600 | 31 | 116 | C[C@@H]1CN(Cc2ccc(C(=O)NO)cc2)C[C@H](C)N1C(=O)c1cccc(-c2ccncc2)c1 [Compound 245, 4-(((3R,5S)-3,5-dimethyl-4-(3-(pyridin-4-yl)benzoyl)piperazin-1-yl)methyl)-N-hydroxybenzamide]
> 10000 | 82 | 840 | C[C@@H]1CN(Cc2ccc3[nH]c(C(=O)NO)cc3c2)C[C@H](C)N1Cc1ccccc1 [Compound 569, 5-(((3R,5S)-4-benzyl-3,5-dimethylpiperazin-1-yl)methyl)-N-hydroxy-1H-indole-2-carboxamide]
> 10000 | >13.3 | 754 | C[C@@H]1CN(Cc2ccc(C(=O)NO)nc2)C[C@H](C)N1Cc1cccc(CN2CCOCC2)c1 [Compound 609, 5-(((3R,5S)-3,5-dimethyl-4-(3-(morpholinomethyl)benzyl)piperazin-1-yl)methyl)-N-hydroxypicolinamide]
5000 | 59 | 85 | C[C@@H]1CN(S(=O)(=O)c2ccccc2Cl)C[C@H](C)N1Cc1ccc(C(=O)NO)cc1 [Compound 110, 4-(((2S,6R)-4-((2-chlorophenyl)sulfonyl)-2,6-dimethylpiperazin-1-yl)methyl)-N-hydroxybenzamide]
> 10000 | >119 | 84 | C[C@@H]1CN(Cc2ccc(C(=O)NO)cc2)C[C@H](C)N1Cc1ccc(CN2CCOCC2)cc1 [Compound 376, 4-(((3R,5S)-3,5-dimethyl-4-(4-(morpholinomethyl)benzyl)piperazin-1-yl)methyl)-N-hydroxybenzamide]

SMILES | IC50 (human recombinant HDAC1) [nM] | HDAC6 selectivity (fold) (human recombinant HDAC6) | IC50 (human recombinant HDAC6) [nM]
C[C@@H]1CN(C(=O)Cc2cccc(C3=CCOCC3)c2)C[C@H](C)N1Cc1ccc(C(=O)NO)cc1 [Compound 252, 4-(((2S,6R)-4-(2-(3-(3,6-dihydro-2H-pyran-4-yl)phenyl)acetyl)-2,6-dimethylpiperazin-1-yl)methyl)-N-hydroxybenzamide] | 17500 | 79 | 221
C[C@@H]1CN(Cc2ccc(C(=O)NO)cc2)C[C@H](C)N1C(=O)Cc1cccc(F)c1 [Compound 222, 4-(((3R,5S)-4-(2-(3-fluorophenyl)acetyl)-3,5-dimethylpiperazin-1-yl)methyl)-N-hydroxybenzamide] | 1600 | 16 | 100
C[C@@H]1CN(C(=O)Cc2cccc(-c3ccccc3)c2)C[C@H](C)N1Cc1ccc(C(=O)NO)cc1 [Compound 250, 4-(((2S,6R)-4-(2-([1,1′-biphenyl]-3-yl)acetyl)-2,6-dimethylpiperazin-1-yl)methyl)-N-hydroxybenzamide] | 9500 | 57 | 168
C[C@@H]1CN(Cc2ccc(/C=C/C(=O)NO)cc2)C[C@H](C)N1C(=O)Cc1ccccc1 [Compound 323, (E)-3-(4-(((3R,5S)-3,5-dimethyl-4-(2-phenylacetyl)piperazin-1-yl)methyl)phenyl)-N-hydroxyacrylamide] | > 10000 | >11 | 921
